System: hippocampal slice cultures
Assay: Aβ-induced cell death (EthD-1/calcein AM, % Death) in organotypic hippocampal slice cultures
Type: cell-based, mouse
Protocol: Pups from C57B6/SJL mice were anaesthetized and decapitated at postnatal day 15. The brain was removed and placed in ice-cold dissecting medium (50% Minimum Essential Medium (Invitrogen, Carlsbad, Calif.), 50% Hank's Balanced Salt Solution (Invitrogen), 25 mM HEPES, and 36 mM glucose). Both hippocampi were dissected under a dissecting microscope and cut at 400 μm on a McIlwain tissue chopper. Slices were separated and placed on filter inserts with a 30 mm diameter and a 0.4 μm filter pore size (Millipore, Billerica, Mass.) held in 6-well culture plates. For the first 3 days, slices were kept in Neurobasal media with B-27 supplement, 1 mM glutamine, and 1% penicillin/streptomycin (Invitrogen). Subsequently, the media was changed every 3 days using media without antibiotics. Organotypic cultures were maintained in a humidified incubator at 37° C. in 5% O2 and 5% CO2 for 14 to 21 days.
Cell death and viability was determined on live slices using the fluorescent probes from Molecular Probes' Live/Dead Kit. After a 40 minute incubation in calcein AM (1:400) and ethidium homodimer (1:1000) in phosphate buffered saline, slices were visualized at 200× magnification with an inverted Nikon Diaphot 200 microscope using the Bio-Rad MRC-1024 Laser Scanning Confocal system (Hercules, Calif.). Random images of the neuronal fields were captured at the emission spectrum of each probe, and Scion Image software (Frederick, Md.) was used to quantify the number of live and dead cells. At least three areas including a neuronal field were imaged and used to determine the percent death for each slice. The percent death was calculated as the number of EthD-1 positive cells divided by the total number of EthD-1 and calcein AM positive cells.
β-amyloid1-42 and reverse Aβ (Aβ42-1) were obtained from BACHEM (Torrance, Calif.). These polypeptides were dissolved in 0.1% NH3OH at 222 μM. For treatments, Aβ was aggregated at 50 μM in Neurobasal media with B-27 supplement and 1 mM glutamine at 37° C. for 24 hours. Then, the slice culture media was removed, and the slices were treated with 1 mL of 25 μM or 50 μM Aβ, reverse Aβ, or vehicle for 24 hours. Human TTR (Calbiochem) or IGF-2 (Peprotech, Rocky Hill, N.J.) was added to slices together with the Aβ treatment at final concentrations of 3 μM (TTR) or 500 nM (IGF-2). sAPPα was prepared as described previously (Mattson et al., Neuron, 10:243-254 (1993)).
Unless otherwise stated, all sAPPα treatments were performed at 1 nM 48 hours prior to the addition of Aβ. Antibodies against TTR (C-20) or IGF-2 (F-20; 4 μg/mL; Santa Cruz) or sAPPα (6E10; 10 μg/mL; Chemicon) were added to slices together with the sAPPα treatment. Goat IgG (4 μg/mL; Santa Cruz) or mouse IgG1 (10 μg/mL; Chemicon) was added as a control. The 10 amino acid fragment of the carboxyl-terminal region of sAPPα (592-601 of APP695; SEVKMDAEFR; SEQ ID NO:1; Sigma) was added according to the same protocol for sAPPα.
SiRNA's were created based on the mouse mRNA sequences using the Ambion Silencer siRNA Construction Kit (Austin, Tex.). Several siRNA's were created by in vitro transcription for each silenced gene. Transfection was performed for 4 hours at 37° C. prior to vehicle or sAPPα treatment using 25 nM siRNA combined with the polyamines in the Ambion siPORT Amine Transfection Agent. Transfections were performed in Neurobasal media with 1 mM glutamine (Invitrogen). The successful mRNA target sequences are as follows, TTR: 5′-[…]-3′ (SEQ ID NO:16) and 5′-[…]-3′ (SEQ ID NO:17); IGF-2: 5′-AA-GGGGATAGAGATGTGAGAG-3′ (SEQ ID NO:18) and 5′-AAATTATGTGGT-AATTCTGCA-3′ (SEQ ID NO:19); IGF-1R: 5′-[…]-3′ (SEQ ID NO:20) and 5′-[…]-3′ (SEQ ID NO:21).
β-amyloid1-42 and reverse Aβ (Aβ42-1) were obtained from BACHEM (Torrance, Calif.). These peptides were dissolved in 0.1% NH3OH at 222 μM. For treatments, Aβ was aggregated at 50 μM in Neurobasal media with B-27 supplement and 1 mM glutamine at 37° C. for 24 hours. […]

[1] = 1 nM 48 hours prior to 25 μM Aβ (24 hours), FIG. 7

Substance	Protection against Aβ-induced death (% Death) [1]	Protection against Aβ-induced death (% Death) (1 nM 48 h prior to 25 μM Aβ (24 h), FIG. 12A)	Protection against Aβ-induced death (% Death) (1 nM 48 h prior to 25 μM Aβ (24 h), FIG. 12A, listed as tetramer)	Protection against Aβ-induced death (% Death) (48 h prior to 25 μM Aβ (24 h), FIG. 12B, 1 nM, final concentration of 1 mM)	Protection against Aβ-induced death (% Death) (48 h prior to 25 μM Aβ (24 h), FIG. 12B, 1 nM, final concentration of 1 mM, listed as tetramer)	Protection against Aβ-induced death (% Death, EthD-1 positive cells) (1 nM added 48 hours prior to 25 μM or 50 μM Aβ (24 hours), FIG. 4A)	Percent death compared to treatment with vehicle (25 μM Aβ, 24 hours)	Neurons that lost membrane integrity (EthD-1 positive) / percent death (25 μM or 50 μM Aβ, 24 hours, compared to reverse Aβ)
DAEF [peptide of 4 residues within the 10 residue peptide (residues 597-600)]	sufficient to protect	protects against the Aβ-induced toxicity	completely protected	protects against the Aβ-induced toxicity	completely protected	–	–	–
SEVKMDAEFR	completely protected	–	–	–	–	mimics the protective effect of sAPPα	–	–
β-amyloid1-42 [Aβ]	–	–	–	–	–	–	dramatic and significant increase	dramatic increase
